The results in this text go back to PubChem BioAssay (NCI).

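Results reflect a 48-hour exposure of cells in 96-well plates to compound at five concentrations. TGI denotes the concentration required for complete inhibition of growth.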

Among the test systems are NCI-H23 lung; SF-295 CNS; UACC-257 melanoma; HS 578T breast; SNB-19 CNS; ACHN renal; K-562 leukemia; NCI-H460 lung; MDA-MB-435; UACC-62 melanoma; NCI-H226 lung; EKVX NSCLC; NCI/ADR-RES ovarian; 786-0 renal; OVCAR-4 ovarian; SW-620 colon; MDA-N; U251 CNS; KM12 colon.
Common to all, as to assay: DTP human tumour cell line panel, 48 h

The TGI is the concentration giving total growth inhibition. Low values mean greater sensitivity of the cells, high ones lower sensitivity of the cells. For `[C-]#[N+]C1(C(=O)OCC)CC1`, the TGI with NCI-H23 lung, in the assay with SF-295 CNS, in the assay on UACC-257 melanoma, in the assay on HS 578T breast, in the assay with SNB-19 CNS and with ACHN renal was more than 100 µM in each case. The TGI in the assay with K-562 leukemia, in the assay with NCI-H460 lung, with MDA-MB-435, in the assay with UACC-62 melanoma, in the assay on NCI-H226 lung and with EKVX NSCLC was more than 100 µM throughout. For the same molecule, the TGI with NCI/ADR-RES ovarian, in the assay with 786-0 renal, in the assay with OVCAR-4 ovarian, in the assay on SW-620 colon, in the assay on MDA-N and in the assay on U251 CNS was more than 100 µM throughout.

As to `CCCCc1ccc(Nc2nc(N)c3ncn(COCCO)c3n2)cc1`, the TGI in the assay on KM12 colon was more than 100 µM; in the assay on NCI-H23 lung it was 56.3 µM; in the assay on SF-295 CNS, 41.2 µM; in the assay on UACC-257 melanoma, 44.4 µM; in the assay on HS 578T breast it was 75 µM; in the assay on SNB-19 CNS, more than 100 µM. Also, the TGI is 65.6 µM in the assay on ACHN renal; more than 100 µM with K-562 leukemia; 51.2 µM in the assay on MDA-MB-435; 38.5 µM in the assay with UACC-62 melanoma; more than 100 µM in the assay on NCI-H226 lung; more than 100 µM in the assay with EKVX NSCLC. In addition, the TGI in the assay with NCI/ADR-RES ovarian was 71.7 µM; in the assay with 786-0 renal, 65.4 µM; in the assay with OVCAR-4 ovarian, more than 100 µM; in the assay with SW-620 colon it was more than 100 µM; with MDA-N, more than 100 µM; in the assay with U251 CNS, 66.4 µM.

On to `CC(C)(C)N(Cc1ccoc1)C(=O)/C=C\S(=O)c1ccccc1` (stereo not given), for which the TGI in the assay on KM12 colon was 34.5 µM; in the assay with NCI-H23 lung it was 32.3 µM; with SF-295 CNS, more than 100 µM; with UACC-257 melanoma it was 46.1 µM; in the assay on HS 578T breast it was 68 µM; in the assay on SNB-19 CNS, 88.8 µM. The TGI with ACHN renal was 86.5 µM; in the assay on K-562 leukemia it was more than 100 µM; with MDA-MB-435, 20.7 µM; with UACC-62 melanoma, 39.3 µM; with NCI-H226 lung, 48.6 µM; with EKVX NSCLC, 75.5 µM. In addition, the TGI with NCI/ADR-RES ovarian was 56.2 µM; in the assay on 786-0 renal it was 67 µM; with OVCAR-4 ovarian it was more than 100 µM; with SW-620 colon, 32 µM; in the assay with MDA-N, 44.2 µM; in the assay with U251 CNS, 29.9 µM.

Turning to `CCN(CC)CCC(=O)c1ccc(Oc2ccccc2)cc1`, the TGI was 27.4 µM in the assay on KM12 colon; 78.5 µM with NCI-H23 lung; more than 100 µM in the assay with SF-295 CNS; 33.5 µM in the assay on UACC-257 melanoma; 52.6 µM with HS 578T breast; 38.2 µM in the assay on SNB-19 CNS. The TGI was 29.3 µM with ACHN renal; more than 100 µM in the assay with K-562 leukemia; 40.2 µM in the assay on MDA-MB-435; 29.3 µM in the assay on UACC-62 melanoma; more than 100 µM in the assay on NCI-H226 lung; 41.4 µM in the assay on EKVX NSCLC. Moreover, the TGI in the assay on NCI/ADR-RES ovarian stood at 56.4 µM; in the assay with 786-0 renal, 29.3 µM; in the assay with OVCAR-4 ovarian it was 76.9 µM; in the assay on SW-620 colon, 31.3 µM; in the assay on MDA-N, 30.1 µM; with U251 CNS, 32.3 µM.

`CCOC(=O)c1nc2ccccc2nc1Oc1ccc(OC)cc1`: the total growth inhibition concentration (TGI) in the assay with KM12 colon, in the assay on SF-295 CNS, in the assay on UACC-257 melanoma, with HS 578T breast, in the assay on SNB-19 CNS and in the assay with ACHN renal was more than 100 µM each time. The TGI in the assay with K-562 leukemia, in the assay on NCI-H460 lung, in the assay on MDA-MB-435, in the assay with UACC-62 melanoma, in the assay with NCI-H226 lung and in the assay with EKVX NSCLC was more than 100 µM each time. The TGI in the assay on NCI/ADR-RES ovarian, in the assay with 786-0 renal, with OVCAR-4 ovarian, in the assay with SW-620 colon, in the assay with MDA-N and with U251 CNS was more than 100 µM in each case.

As to `Clc1ccc(-c2nnc(C34CC5CC(CC(C5)C3)C4)o2)cc1`, the TGI with NCI-H23 lung, in the assay on SF-295 CNS, with UACC-257 melanoma, in the assay with HS 578T breast, in the assay on SNB-19 CNS and in the assay with ACHN renal was more than 100 µM each time. Further, the TGI in the assay with K-562 leukemia, with NCI-H460 lung, in the assay on MDA-MB-435, with UACC-62 melanoma, with NCI-H226 lung and in the assay with EKVX NSCLC was more than 100 µM in each case. Further, the TGI in the assay on NCI/ADR-RES ovarian, with 786-0 renal, in the assay on OVCAR-4 ovarian, in the assay on SW-620 colon, with MDA-N and with U251 CNS was more than 100 µM in each case.

For `COC(=O)/C(=C\c1cn(C(C)=O)c2ccccc12)P(=O)(OC)OC`, the TGI is 30.2 µM in the assay with NCI-H23 lung; 28.5 µM in the assay with SF-295 CNS; more than 100 µM with HS 578T breast; 32 µM with SNB-19 CNS; 25.4 µM in the assay with ACHN renal; more than 100 µM in the assay with K-562 leukemia. Further, the TGI with NCI-H460 lung was 31.1 µM; in the assay with MDA-MB-435, 64.7 µM; in the assay with UACC-62 melanoma, 31.1 µM; with NCI-H226 lung, more than 100 µM; with EKVX NSCLC it was 38 µM; with NCI/ADR-RES ovarian, more than 100 µM. Moreover, the TGI with 786-0 renal is 46.3 µM; with OVCAR-4 ovarian it was 30.2 µM; with SW-620 colon it was 40.7 µM; with MDA-N it was 32.4 µM; in the assay with U251 CNS it was 29.5 µM.
